For assay [1], the system named is human STING (HAQ). The assay is described as follows: Differential scanning fluorimetry (DSF), huSTING (HAQ). It counts as binding. As to conditions: 2 μM protein, compound 100 μM; Tm with ligand minus Tm of protein alone (1% DMSO). The protocol:
(§1) Biophysical experiments were performed with three different recombinant human STING protein variants designated according to allelic nomenclature of Yi et al., (2013). […] These were ligated into a modified pET43a E. coli expression vector designed to encode N-terminal His tag followed by tobacco etch virus protease (TEV) cleavage site and a STING gene sequence. The resulting protein sequences for the three allelic variants are listed below: […] Cultures were then cooled to 16° C. and protein expression induced by the addition of isopropyl β-D-1-thiogalactopyranoside to a final concentration of 0.5 mM and the cultures shaken overnight for further 16 hours. Following expression, cell cultures were centrifuged at 5000×g for 20 min and cell pellet stored frozen at −70° C. Protein purification was initiated by thawing the cell pellet in Lysis buffer (25 mM Tris-HCl pH 8.0, 300 mM NaCl, 5 mM DTT, 2 mM MgCl2, 10 mM imidazole, 0.5 mg/ml lysozyme, benzonase endonuclease [EMD Millipore], 1 mM PMSF, complete protease inhibitor tablets EDTA-free [Roche]) using a ratio of 7 ml of buffer per 1 g of cells. Cells were further lysed by 3 passes through an ice cooled Avestin C5 cell crusher and then centrifuged at 48,000×g at 4° C. […] The IMAC column was then sequentially washed with IMAC Wash buffer 1 and IMAC Wash buffer 2 (25 mM Tris-HCl pH 8.0, 300 mM NaCl, 5 mM DTT, 20 mM Imidazole) and bound His-TEV-hSTING protein eluted with IMAC Elution buffer (25 mM Tris-HCl pH 8.0, 300 mM NaCl, 5 mM DTT, 250 mM Imidazole). […] Differential scanning fluorimetry (DSF) is a rapid screening method for identifying low-molecular-weight ligands that bind and, in doing so, stabilize (or sometimes destabilize) purified proteins (Niesen 2007). DSF monitors thermal unfolding of protein in the presence of a fluorescent dye and is typically performed using a real-time PCR instrument. The temperature at which a protein unfolds is measured by an increase in the fluorescence of a dye with affinity for hydrophobic parts of the protein that are gradually being exposed during unfolding. The fluorescence of the dye is quenched in aqueous environments, but when the dye associates with hydrophobic sites on unfolded protein, its fluorescence increases. The fluorescence intensity is plotted as a function of the temperature, generating a sigmoidal curve that can be described by a two-state transition. The inflection point of the transition curve (Tm) is calculated using simple equations such as that of Boltzmann. Thermal stability of STING protein (with and without bound ligand) was measured using previously described methodology (Seabrook & Newman, 2013), with samples tested in triplicate using 96-well PCR microplate (AB Gene, ABGAB-0600/W). […] Sealed plates were placed into Bio-Rad CFX96/C1000 thermocycler and FRET scanning mode (λ^excitation of 490 nm and reads at a λ^emission of 570 nm). Melting curves were recorded from 20° C. to 100° C. in 0.5° C. increments every 30 seconds with a read at each increment. Data were analysed using “Meltdown analysis” protocol described by Rosa (2015).
Background: In DSF a fluorescence change marks the thermal transition of the protein.

In assay [2] the target is human STING (WT) (Homo sapiens (Human), UniProt Q86WV6, H232R). Nature of the assay: Differential scanning fluorimetry (DSF), huSTING (WT). It counts as binding. As to conditions: for ΔTm at 100 µM: read-out: DSF huSTING (WT) ΔTm (° C.). As for the experimental part: as §1
Sequence of human STING (WT) (Q86WV6 other isoform, or with tags, fused parts or gaps, stated change not applied): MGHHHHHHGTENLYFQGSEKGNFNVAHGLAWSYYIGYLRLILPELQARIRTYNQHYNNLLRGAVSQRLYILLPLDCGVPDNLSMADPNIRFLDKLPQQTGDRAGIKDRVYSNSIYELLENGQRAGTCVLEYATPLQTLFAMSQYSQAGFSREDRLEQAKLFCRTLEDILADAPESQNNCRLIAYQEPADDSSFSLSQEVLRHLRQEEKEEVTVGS
Assay [3] addresses human HAQ isoform of STING (THP-1 STING Lucia ISG cells) (Homo sapiens (Human), UniProt Q86WV6, G230A/H232R/R293Q/R71H). Nature of the assay: THP-1 STING Lucia ISG reporter cell line assay. Format: cell-based. As to conditions: 24 h incubation, QUANTI-Luc luminescence. As for the experimental part:
(§2) THP-1 STING Lucia ISG cells (InvivoGen #thpI-isg) were cultured in RPMI-1640 containing 2 mM L-glutamine, 25 mM HEPES, 100 μg/mL Normocin (InvivoGen) and 10% heat-inactivated FBS. Cells were seeded at a density of 7×10^5 cells/mL, maintained at 37° C./5% CO2, and passaged every 3-4 days. Selection pressure was maintained by the addition of 100 μg/mL Zeocin every second passage.
(§3) Assay conditions: cells were harvested and resuspended at a concentration of 5×10^5 cells/mL in fresh growth media. Of this cell preparation 20 μL per well was dispensed into 384 well cell culture plates (Greiner, #781098X) and incubated at 37° C./5% CO2 for 2 hours. Concentration Response Curves (commonly 11 doses) were prepared by 2.5 fold serial dilution starting from 10 mM compound stock solution in DMSO. Compound dilutions were transferred into the cell culture plates using a pintool (0.1 μL transfer), control wells were matched for DMSO. Positive control wells received ML RR—S2 CDA (Med Chem Express HY12885B) in 5 μL of media to a final concentration of 40 μM. All other wells received additional 5 μL of media only to equalise volume. The plates were incubated for 24 h at 37° C./5% CO2.
(§4) For the detection step, QUANTI-Luc (InvivoGen #rep-qlc1) was prepared according to manufacturer's instruction and 10 μL were added per well to the culture plates. Plates were shaken for ten seconds on an orbital shaker and left in the dark at room temperature for two minutes, before luminescence was read on a Perkin Elmer Envision plate reader.
(§5) Data analysis: Luminescence raw data was normalised % activity relative to the signal of the positive control wells and negative control wells which were not treated with compound. The following formula was used to calculate normalised % activity from raw signals: % activity=(sample−negative)/(positive−negative)
(§6) The THP-1 STING Lucia ISG cell EC50 provides an assessment of activity at the human HAQ isoform of STING. For assessing compound activity against the WT human STING isoform, an equivalent method was conducted where the cells used were THP-1-Dual KI-hSTING-R232 (InvivoGen #thpd-r232).

Assay [4] addresses WT human STING isoform (THP-1-Dual KI-hSTING-R232 cells) (Homo sapiens (Human), UniProt Q86WV6, H232R). Nature of the assay: THP-1-Dual KI-hSTING-R232 reporter cell line assay. Format: cell-based. As to conditions: 24 h incubation, QUANTI-Luc luminescence. The protocol:
as §2, §3, §4, §5, §6

Assay [5] concerns the target human STING (HAQ) (Homo sapiens, UniProt Q86WV6, G230A/H232R/R293Q). The assay is described as follows: Differential scanning fluorimetry (DSF), huSTING (HAQ). It counts as binding. The note with it: read-out: DSF huSTING (HAQ) ΔTm (° C.). As for the experimental part: as §1
[6] abbreviates: 2 μM protein, compound 100 μM, Tm with ligand minus Tm of protein alone (1% DMSO).

These results are taken from patent US12415785B2, “Compound modulators of sting” (CTXT PTY LTD, priority 2019, dated 2025).

Read-outs that look alike come from different tables or passages of the source.

Sequence of human HAQ isoform of STING (THP-1 STING Lucia ISG cells) (Q86WV6 whole entry R71H/G230A/H232R/R293Q, canonical isoform): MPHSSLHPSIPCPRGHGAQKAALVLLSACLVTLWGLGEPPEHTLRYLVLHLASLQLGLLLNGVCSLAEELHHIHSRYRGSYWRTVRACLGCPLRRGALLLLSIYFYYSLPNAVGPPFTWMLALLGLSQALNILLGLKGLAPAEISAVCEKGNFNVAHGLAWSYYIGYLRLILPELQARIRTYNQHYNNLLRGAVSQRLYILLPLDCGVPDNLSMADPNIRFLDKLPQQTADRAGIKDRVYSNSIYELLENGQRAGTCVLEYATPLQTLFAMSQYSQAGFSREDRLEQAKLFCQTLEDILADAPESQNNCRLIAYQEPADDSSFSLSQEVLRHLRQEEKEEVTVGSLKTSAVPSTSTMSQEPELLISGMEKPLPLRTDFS
Sequence of human STING (HAQ) (Homo sapiens, UniProt Q86WV6, G230A/H232R/R293Q) (Q86WV6 whole entry G230A/H232R/R293Q, looked up): as the sequence (Q86WV6 whole entry R71H/G230A/H232R/R293Q, canonical isoform) above, with H71R counted along it
Sequence of WT human STING isoform (THP-1-Dual KI-hSTING-R232 cells) (Q86WV6 whole entry H232R, canonical isoform): as the sequence (Q86WV6 whole entry R71H/G230A/H232R/R293Q, canonical isoform) above, with H71R, A230G, Q293R counted along it

For the compound `NC(=O)c1ccc2c(c1)nc(-c1c(Br)cccc1C(=O)O)n2CCn1c(-c2c(Br)cccc2C(=O)O)nc2cc(C(N)=O)ccc21` (single isomer, unassigned) [Example 29.2, 2,2′-(Ethane-1,2-diylbis(5-carbamoyl-1H-benzo[d]imidazole-1,2-diyl))bis(3-bromobenzoic acid)], the “DSF huSTING (HAQ) ΔTm (° C.)” value in assay [1] was −5.65 °C. The “DSF huSTING (WT) ΔTm (° C.)” value in assay [2] (setting [6]) was −6.70 °C. The EC50 in assay [3] and in assay [4] was above 40000 nM in each case.
In the case of `COc1c(C(N)=O)ccc2c1nc(-c1c(C(=O)O)ccc(Cl)c1F)n2CCn1c(-c2c(C(=O)O)ccc(Cl)c2F)nc2c(OC)c(C(N)=O)ccc21` [Example 12, 2,2′-(Ethane-1,2-diylbis(5-carbamoyl-4-methoxy-1H-benzo[d]imidazole-1,2-diyl))bis(4-chloro-3-fluorobenzoic acid)], the thermal shift (ΔTm) at 100 µM in assay [5] (setting [6]) was 28.3 °C; in assay [2] (setting [6]), 4.56 °C. The EC50 came out at 2650 nM in assay [3] and 2550 nM in assay [4].
The corresponding values for `COc1c(C(N)=O)ccc2c1nc(-c1cc(F)ccc1C(=O)O)n2CCn1c(-c2cc(F)ccc2C(=O)O)nc2c(OC)c(C(N)=O)ccc21` [Example 28, 2,2′-(Ethane-1,2-diylbis(5-carbamoyl-4-methoxy-1H-benzo[d]imidazole-1,2-diyl))bis(4-fluorobenzoic acid)] are -2.19 °C, -6.6 °C, 12600 nM and above 40000 nM.
For `COc1c(C(N)=O)ccc2c1nc(-c1ccc(C#N)cc1C(=O)O)n2CCn1c(-c2ccc(C#N)cc2C(=O)O)nc2c(OC)c(C(N)=O)ccc21` [Example 51, 2-(5-Carbamoyl-1-(2-(5-carbamoyl-2-(2-carboxy-4-cyanophenyl)-4-methoxy-1H-benzo[d]imidazol-1-yl)ethyl)-4-methoxy-1H-benzo[d]imidazol-2-yl)-5-cyanobenzoic acid], the shift in melting temperature (ΔTm) at 100 µM in assay [5] (setting [6]) is 1.6 °C; in assay [2] (setting [6]) it was -0.85 °C.
As to `COc1c(C(N)=O)ccc2c1nc(-c1cc(Cl)ccc1C(=O)O)n2CCn1c(-c2cc(Cl)ccc2C(=O)O)nc2c(OC)c(C(N)=O)ccc21` [Example 7, 2,2′-(Ethane-1,2-diylbis(5-carbamoyl-4-methoxy-1H-benzo[d]imidazole-1,2-diyl))bis(4-chlorobenzoic acid)], the ΔTm at 100 µM in assay [5] (setting [6]) was 5.88 °C; in assay [2] (setting [6]), -2.49 °C. For the same compound, the results for the concentration for a half-maximal effect (EC50) in assay [3] and in assay [4] were 1550 nM and 1430 nM, respectively.
On to `COc1c(C(N)=O)ccc2c1nc(-c1ccc(F)cc1C(=O)O)n2CCn1c(-c2ccc(F)cc2C(=O)O)nc2c(OC)c(C(N)=O)ccc21` [Example 27, 6,6′-(Ethane-1,2-diylbis(5-carbamoyl-4-methoxy-1H-benzo[d]imidazole-1,2-diyl))bis(3-fluorobenzoic acid)], for which the ΔTm at 100 µM turned out to be 6.17 °C in assay [5] (setting [6]) and 2.62 °C in assay [2] (setting [6]). Also, the EC50 in assay [3] came out at 11300 nM; in assay [4] it was 10500 nM.
The like results for `COc1c(C(N)=O)ccc2c1nc(-c1ccc(Br)cc1C(=O)O)n2CCn1c(-c2ccc(Br)cc2C(=O)O)nc2c(OC)c(C(N)=O)ccc21` [Example 14, 6,6′-(Ethane-1,2-diylbis(5-carbamoyl-4-methoxy-1H-benzo[d]imidazole-1,2-diyl))bis(3-bromobenzoic acid)] were, in that order, 9.15 °C, 4.74 °C, 1310 nM and 1990 nM.
Consider `COc1c(C(N)=O)ccc2c1nc(-c1cc(Cl)c(Cl)cc1C(=O)O)n2CCn1c(-c2cc(Cl)c(Cl)cc2C(=O)O)nc2c(OC)c(C(N)=O)ccc21` [Example 8, 6,6′-(Ethane-1,2-diylbis(5-carbamoyl-4-methoxy-1H-benzo[d]imidazole-1,2-diyl))bis(3,4-dichlorobenzoic acid)], for which the figures for the thermal shift (ΔTm) at 100 µM in assay [5] and in assay [2] were 23.2 °C and 6.38 °C, respectively. The values for the EC50 in assay [3] and in assay [4] were 540 nM and 426 nM, respectively.
On to `COC(=O)c1cc(Br)ccc1-c1nc2c(OC)c(C(N)=O)ccc2n1CCn1c(-c2ccc(Br)cc2C(=O)OC)nc2c(OC)c(C(N)=O)ccc21` [Example 13, Dimethyl 6,6′-(ethane-1,2-diylbis(5-carbamoyl-4-methoxy-1H-benzo[d]imidazole-1,2-diyl))bis(3-bromobenzoate)], for which the EC50 in assay [3] and in assay [4] was above 40000 nM each time.
Regarding `NC(=O)c1ccc2c(c1)nc(-c1ccc(Cl)cc1C(=O)O)n2CCn1c(-c2ccc(Cl)cc2C(=O)O)nc2cc(C(N)=O)ccc21` [Example 39, 6,6′-(Ethane-1,2-diylbis(5-carbamoyl-1H-benzo[d]imidazole-1,2-diyl))bis(3-chlorobenzoic acid)], the ΔTm at 100 µM in assay [5] (setting [6]) is 0.86 °C; in assay [2] (setting [6]) it was -4.35 °C. The 50% effective concentration (EC50) in assay [3] and in assay [4] was above 40000 nM throughout.
On to `COc1c(C(N)=O)ccc2c1nc(-c1ccc(Cl)cc1-c1nn[nH]n1)n2CCn1c(-c2c(F)cc(Cl)cc2C(=O)O)nc2c(OC)c(C(N)=O)ccc21` [Example 47, 2-(5-Carbamoyl-1-(2-(5-carbamoyl-2-(4-chloro-2-(2H-tetrazol-5-yl)phenyl)-4-methoxy-1H-benzo[d]imidazol-1-yl)ethyl)-4-methoxy-1H-benzo[d]imidazol-2-yl)-5-chloro-3-fluorobenzoic acid], for which the EC50 in assay [3] came out at 497 nM; in assay [4], 549 nM.
Turning to `COc1c(C(N)=O)ccc2c1nc(-c1c(I)cccc1C(=O)O)n2CCn1c(-c2c(I)cccc2C(=O)O)nc2c(OC)c(C(N)=O)ccc21` (single isomer, unassigned) [Example 19.2, 2,2′-(Ethane-1,2-diylbis(5-carbamoyl-4-methoxy-1H-benzo[d]imidazole-1,2-diyl))bis(3-iodobenzoic acid)], the “DSF huSTING (HAQ) ΔTm (° C.)” value in assay [1] came out at 21.66 °C. The “DSF huSTING (WT) ΔTm (° C.)” value in assay [2] (setting [6]) worked out at 6.58 °C. In addition, the EC50 was 14900 nM in assay [3] and 11700 nM in assay [4].

By EC50 is commonly meant the concentration at which the effect is half-maximal. Read a high EC50 as lower potency in that assay. What is called ΔTm is the shift of the melting midpoint relative to a reference.
